Publication PMC5218480 (PLoS ONE, 2017)

Tested on: MV-4-11 cells
Experiment: Gene expression microarray analysis (Affymetrix PrimeView) and GSEA
Assay type: cell-based, human
Parameters: RFU PODN (11730768_x_at) / Fold change /veh PODN (11730768_x_at) / RFU LINC00158 (11744669_a_at) / Fold change /veh LINC00158 (11744669_a_at) / RFU DUSP10 (11751237_a_at) / Fold change /veh DUSP10 (11751237_a_at) / RFU ID3 (11757404_x_at) / Fold change /veh ID3 (11757404_x_at) / RFU PLEKHG5 (11737974_s_at) / Fold change /veh PLEKHG5 (11737974_s_at) / RFU LRRC4B (11730491_at) / Fold change /veh LRRC4B (11730491_at) / RFU GIMAP4 (11747438_a_at) / Fold change /veh GIMAP4 (11747438_a_at) / RFU KRT8 (11758183_x_at) / Fold change /veh KRT8 (11758183_x_at) / RFU CNN1 (11734310_a_at) / Fold change /veh CNN1 (11734310_a_at) / RFU VPS37D (11726825_at) / Fold change /veh VPS37D (11726825_at) / RFU C10orf10 (11716522_x_at) / Fold change /veh C10orf10 (11716522_x_at) / RFU KIR2DL2 /// KIR2DL4 /// KIR2DL5A /// KIR2DL5B /// KIR2DS1 /// KIR2DS2 /// KIR2DS3 /// KIR2DS4 /// KIR3DL3 /// KIR3DL3 /// KIR3DS1 (11738374_at) / Fold change /veh KIR2DL2 /// KIR2DL4 /// KIR2DL5A /// KIR2DL5B /// KIR2DS1 /// KIR2DS2 /// KIR2DS3 /// KIR2DS4 /// KIR3DL3 /// KIR3DL3 /// KIR3DS1 (11738374_at) / RFU C1QL1 (11718748_at) / Fold change /veh C1QL1 (11718748_at) / RFU TMPRSS4 (11747572_a_at) / Fold change /veh TMPRSS4 (11747572_a_at) / RFU HAMP (11756126_x_at) / Fold change /veh HAMP (11756126_x_at) / RFU RNFT2 (11725882_a_at) / Fold change /veh RNFT2 (11725882_a_at) / RFU NR4A2 (11747474_a_at) / Fold change /veh NR4A2 (11747474_a_at) / RFU ABCC12 (11746883_a_at) / Fold change /veh ABCC12 (11746883_a_at) / RFU TMEM136 (11760407_x_at) / Fold change /veh TMEM136 (11760407_x_at) / RFU CLDN22 /// WWC2 (11732394_at) / Fold change /veh CLDN22 /// WWC2 (11732394_at) / RFU HLA-DPB1 (11760878_x_at) / Fold change /veh HLA-DPB1 (11760878_x_at) / RFU SPINT1 (11716480_a_at) / Fold change /veh SPINT1 (11716480_a_at) / RFU GAP43 (11754022_s_at) / Fold change /veh GAP43 (11754022_s_at) / RFU A4GNT (11735810_at) / Fold change /veh A4GNT (11735810_at) / RFU PRB3 (11715151_x_at) / Fold change /veh PRB3 (11715151_x_at) / RFU TUBB4B (11761932_at) / Fold change /veh TUBB4B (11761932_at) / RFU CAPN14 (11732068_a_at) / Fold change /veh CAPN14 (11732068_a_at) / RFU TMCC2 (11721928_a_at) / Fold change /veh TMCC2 (11721928_a_at) / RFU IRGQ (11745062_a_at) / Fold change /veh IRGQ (11745062_a_at) / RFU FAM174B (11720279_a_at) / Fold change /veh FAM174B (11720279_a_at) / RFU TMPRSS4 (11748680_a_at) / Fold change /veh TMPRSS4 (11748680_a_at) / RFU FAM212B (11763350_a_at) / Fold change /veh FAM212B (11763350_a_at) / RFU PLEKHG5 (11743358_a_at) / Fold change /veh PLEKHG5 (11743358_a_at) / RFU ZSCAN30 (11745921_a_at) / Fold change /veh ZSCAN30 (11745921_a_at) / RFU CMKLR1 (11741424_a_at) / Fold change /veh CMKLR1 (11741424_a_at) / RFU LOC101060620 /// MAPK8IP1 (11723275_at) / Fold change /veh LOC101060620 /// MAPK8IP1 (11723275_at) / RFU SPTSSB (11747773_x_at) / Fold change /veh SPTSSB (11747773_x_at) / RFU PRSS12 (11739890_at) / Fold change /veh PRSS12 (11739890_at) / RFU BIN1 (11741810_x_at) / Fold change /veh BIN1 (11741810_x_at) / RFU WNT11 (11732464_a_at) / Fold change /veh WNT11 (11732464_a_at) / RFU C10orf10 (11716521_a_at) / Fold change /veh C10orf10 (11716521_a_at) / RFU C5orf56 (11738089_at) / Fold change /veh C5orf56 (11738089_at) / RFU CYB561 (11721691_x_at) / Fold change /veh CYB561 (11721691_x_at) / RFU ANKRD19P (11752326_a_at) / Fold change /veh ANKRD19P (11752326_a_at) / RFU OR2T12 /// OR2T33 /// OR2T8 (11738714_s_at) / Fold change /veh OR2T12 /// OR2T33 /// OR2T8 (11738714_s_at) / RFU VCAN (11748164_a_at) / Fold change /veh VCAN (11748164_a_at) / RFU JSRP1 (11732532_at) / Fold change /veh JSRP1 (11732532_at) / RFU KRTAP10-11 (11738290_x_at) / Fold change /veh KRTAP10-11 (11738290_x_at) / RFU MYO3A (11730013_a_at) / Fold change /veh MYO3A (11730013_a_at) / RFU EBF3 (11725865_a_at) / Fold change /veh EBF3 (11725865_a_at) / RFU CAMK2N1 (11719241_x_at) / Fold change /veh CAMK2N1 (11719241_x_at) / RFU C5orf56 (11738088_a_at) / Fold change /veh C5orf56 (11738088_a_at) / RFU OLFML3 (11715873_a_at) / Fold change /veh OLFML3 (11715873_a_at) / RFU LOC100653217 /// NTM (11731650_a_at) / Fold change /veh LOC100653217 /// NTM (11731650_a_at) / RFU MAPK11 (11762145_a_at) / Fold change /veh MAPK11 (11762145_a_at) / RFU FIZ1 (11724087_x_at) / Fold change /veh FIZ1 (11724087_x_at) / RFU OASL (11726364_x_at) / Fold change /veh OASL (11726364_x_at) / RFU SOX15 (11748057_x_at) / Fold change /veh SOX15 (11748057_x_at) / RFU CD79A (11719716_a_at) / Fold change /veh CD79A (11719716_a_at) / RFU HIST1H1D (11736915_at) / Fold change /veh HIST1H1D (11736915_at) / RFU CASKIN2 (11723855_a_at) / Fold change /veh CASKIN2 (11723855_a_at) / RFU LOC730098 (11760151_x_at) / Fold change /veh LOC730098 (11760151_x_at) / RFU OR4N2 (11742367_at) / Fold change /veh OR4N2 (11742367_at) / RFU PRRT2 (11749266_a_at) / Fold change /veh PRRT2 (11749266_a_at) / RFU SNX32 (11753110_a_at) / Fold change /veh SNX32 (11753110_a_at) / RFU CDHR5 (11726645_a_at) / Fold change /veh CDHR5 (11726645_a_at) / RFU RCAN1 (11760418_a_at) / Fold change /veh RCAN1 (11760418_a_at) / RFU FAM167A (11723789_a_at) / Fold change /veh FAM167A (11723789_a_at) / RFU FAM26E (11764081_at) / Fold change /veh FAM26E (11764081_at) / RFU ISYNA1 (11749810_s_at) / Fold change /veh ISYNA1 (11749810_s_at) / RFU ACY1 (11761880_at) / Fold change /veh ACY1 (11761880_at) / RFU 11764098_at / Fold change /veh 11764098_at / RFU SAMD14 (11745864_x_at) / Fold change /veh SAMD14 (11745864_x_at) / RFU NPB (11741838_a_at) / Fold change /veh NPB (11741838_a_at) / RFU TMPRSS6 (11731388_a_at) / Fold change /veh TMPRSS6 (11731388_a_at) / RFU KRTAP10-2 (11738614_at) / Fold change /veh KRTAP10-2 (11738614_at) / RFU ARHGAP8 /// PRR5-ARHGAP8 (11727945_x_at) / Fold change /veh ARHGAP8 /// PRR5-ARHGAP8 (11727945_x_at) / RFU KRTAP5-7 /// NADSYN1 (11734609_at) / Fold change /veh KRTAP5-7 /// NADSYN1 (11734609_at) / RFU RASL12 (11751679_a_at) / Fold change /veh RASL12 (11751679_a_at) / RFU CDKN2B (11736163_a_at) / Fold change /veh CDKN2B (11736163_a_at) / RFU PRF1 (11729649_at) / Fold change /veh PRF1 (11729649_at) / RFU, ZNF638 /// ZNF638-IT1 / Fold change vs veh, ZNF638 /// ZNF638-IT1 / RFU, PANK3 / Fold change vs veh, PANK3 / RFU, SH3YL1 / Fold change vs veh, SH3YL1 / RFU, ZEB2 / Fold change vs veh, ZEB2 / RFU, NRIP1 / Fold change vs veh, NRIP1 / RFU, PTTG1IP / Fold change vs veh, PTTG1IP / RFU, CAPN2 / Fold change vs veh, CAPN2 / RFU, MED14 / Fold change vs veh, MED14 / RFU, SNORA58 / Fold change vs veh, SNORA58 / RFU, C1orf63 / Fold change vs veh, C1orf63 / RFU, LRRFIP1 / Fold change vs veh, LRRFIP1 / RFU, NDUFAF7 / Fold change vs veh, NDUFAF7 / RFU, SLC12A2 / Fold change vs veh, SLC12A2 / RFU, IBTK / Fold change vs veh, IBTK / RFU, ESF1 / Fold change vs veh, ESF1 / Fold change vs veh, TMEM50B / RFU, TAOK1 / Fold change vs veh, TAOK1 / RFU, ACBD3 / Fold change vs veh, ACBD3 / RFU, TMA16 / Fold change vs veh, TMA16 / RFU, RWDD3 / Fold change vs veh, RWDD3 / RFU, BCAT1 / Fold change vs veh, BCAT1 / RFU, EDEM3 / Fold change vs veh, EDEM3 / RFU, TMEM33 / Fold change vs veh, TMEM33 / RFU, WDR75 / Fold change vs veh, WDR75 / RFU, AHCTF1 / Fold change vs veh, AHCTF1 / RFU, TFRC / Fold change vs veh, TFRC / RFU, ZDHHC17 / Fold change vs veh, ZDHHC17 / RFU, NOM1 / Fold change vs veh, NOM1 / RFU, ARL8B / Fold change vs veh, ARL8B / RFU, ZBTB11 / Fold change vs veh, ZBTB11 / RFU, TAMM41 / Fold change vs veh, TAMM41 / RFU, KIAA1704 /// LOC100996395 / Fold change vs veh, KIAA1704 /// LOC100996395 / RFU, ING1 / Fold change vs veh, ING1 / RFU, TRMT61B / Fold change vs veh, TRMT61B / RFU, FUBP3 / Fold change vs veh, FUBP3 / RFU, TP53 / Fold change vs veh, TP53 / RFU, TNKS2 / Fold change vs veh, TNKS2 / RFU, ZFP14 / Fold change vs veh, ZFP14 / RFU, ACTR2 / Fold change vs veh, ACTR2 / RFU, PPP3R1 / Fold change vs veh, PPP3R1 / RFU, PIK3R1 / Fold change vs veh, PIK3R1 / RFU, HNRNPA1 / Fold change vs veh, HNRNPA1 / RFU, RNF170 / Fold change vs veh, RNF170 / RFU, ZNF28 / Fold change vs veh, ZNF28 / RFU, RNGTT / Fold change vs veh, RNGTT / RFU, OGT / Fold change vs veh, OGT / RFU, BRD1 / Fold change vs veh, BRD1 / RFU, MARS / Fold change vs veh, MARS / RFU, ZNF655 / Fold change vs veh, ZNF655 / RFU, FAHD1 / Fold change vs veh, FAHD1 / RFU, BDP1 / Fold change vs veh, BDP1 / RFU, LRRCC1 / Fold change vs veh, LRRCC1 / RFU, ARID1A / Fold change vs veh, ARID1A / RFU, ZNF146 / Fold change vs veh, ZNF146 / RFU, ZNF330 / Fold change vs veh, ZNF330 / RFU, GPN3 / Fold change vs veh, GPN3 / RFU, C9orf123 / Fold change vs veh, C9orf123 / RFU, N4BP2L2 / Fold change vs veh, N4BP2L2 / RFU, ARFIP1 / Fold change vs veh, ARFIP1 / RFU, FAM179B / Fold change vs veh, FAM179B / RFU, BCL10 / Fold change vs veh, BCL10 / RFU, UHRF1BP1L / Fold change vs veh, UHRF1BP1L / RFU, BET1 / Fold change vs veh, BET1 / RFU, CNOT2 / Fold change vs veh, CNOT2 / RFU, ZNF268 / Fold change vs veh, ZNF268 / Fold change vs veh, ZNF507 / RFU, DGCR2 / Fold change vs veh, DGCR2 / RFU, WDSUB1 / Fold change vs veh, WDSUB1 / Fold change vs veh, HSP90B1 /// MIR3652 / RFU, ADSS / Fold change vs veh, ADSS / RFU, GK / Fold change vs veh, GK / RFU, ZNF148 / Fold change vs veh, ZNF148 / RFU, TAF9 / Fold change vs veh, TAF9 / RFU, SLC1A5 / Fold change vs veh, SLC1A5 / RFU, SLMO2 / Fold change vs veh, SLMO2 / RFU, ABCC4 / Fold change vs veh, ABCC4 / RFU, LOC101060439 /// RAP1B / Fold change vs veh, LOC101060439 /// RAP1B / RFU, RFX7 / Fold change vs veh, RFX7 / RFU, GTPBP10 / Fold change vs veh, GTPBP10 / RFU, CNEP1R1 / Fold change vs veh, CNEP1R1 / RFU, BIVM-ERCC5 /// ERCC5 / Fold change vs veh, BIVM-ERCC5 /// ERCC5 / RFU, ILF3 / Fold change vs veh, ILF3 / RFU 11762660_at / Fold change /veh 11762660_at / RFU VCAN (11757783_s_at) / Fold change /veh VCAN (11757783_s_at) / RFU DDX43 (11728927_at) / Fold change /veh DDX43 (11728927_at) / RFU KRT8 (11758188_x_at) / Fold change /veh KRT8 (11758188_x_at) / RFU NKD1 (11759106_at) / Fold change /veh NKD1 (11759106_at) / RFU SRD5A1 (11742802_a_at) / Fold change /veh SRD5A1 (11742802_a_at) / RFU TPSAB1 /// TPSB2 (11721975_s_at) / Fold change /veh TPSAB1 /// TPSB2 (11721975_s_at) / RFU GSTM3 (11746129_a_at) / Fold change /veh GSTM3 (11746129_a_at) / RFU IL23R (11737362_x_at) / Fold change /veh IL23R (11737362_x_at) / RFU TMEM51 (11727254_a_at) / Fold change /veh TMEM51 (11727254_a_at) / RFU PIWIL2 (11732686_x_at) / Fold change /veh PIWIL2 (11732686_x_at) / RFU ORM1 (11744905_x_at) / Fold change /veh ORM1 (11744905_x_at) / RFU CCDC152 (11743942_at) / Fold change /veh CCDC152 (11743942_at) / RFU ECM1 (11717891_a_at) / Fold change /veh ECM1 (11717891_a_at) / RFU IL23R (11748794_a_at) / Fold change /veh IL23R (11748794_a_at) / RFU TNFAIP8L3 (11732012_x_at) / Fold change /veh TNFAIP8L3 (11732012_x_at) / RFU MBOAT4 (11741988_at) / Fold change /veh MBOAT4 (11741988_at) / RFU 11764193_at / Fold change /veh 11764193_at / RFU TMEM53 (11763286_at) / Fold change /veh TMEM53 (11763286_at) / RFU MAGEB2 (11727129_at) / Fold change /veh MAGEB2 (11727129_at) / RFU TMEM200A (11744735_a_at) / Fold change /veh TMEM200A (11744735_a_at) / RFU CCDC152 (11751479_a_at) / Fold change /veh CCDC152 (11751479_a_at) / RFU FAM211A (11726209_a_at) / Fold change /veh FAM211A (11726209_a_at) / RFU RGS16 (11746705_a_at) / Fold change /veh RGS16 (11746705_a_at) / RFU VCAN (11755009_s_at) / Fold change /veh VCAN (11755009_s_at) / RFU RHOB (11743442_s_at) / Fold change /veh RHOB (11743442_s_at) / RFU RGS16 (11720943_a_at) / Fold change /veh RGS16 (11720943_a_at) / RFU RGS16 (11720944_at) / Fold change /veh RGS16 (11720944_at) / RFU, VPS4B / Fold change vs veh, VPS4B / RFU, CREB1 / Fold change vs veh, CREB1 / RFU, DNAJC13 / Fold change vs veh, DNAJC13 / RFU, GNAQ / Fold change vs veh, GNAQ / RFU, CDK5R1 / Fold change vs veh, CDK5R1 / RFU, ZRANB3 / Fold change vs veh, ZRANB3 / RFU, CUL4A / Fold change vs veh, CUL4A / RFU, CCNY / Fold change vs veh, CCNY / RFU, UFL1 / Fold change vs veh, UFL1 / RFU, COG3 / Fold change vs veh, COG3 / RFU, DIAPH2 / Fold change vs veh, DIAPH2 / RFU, SKA2 / Fold change vs veh, SKA2 / RFU, AFF3 / Fold change vs veh, AFF3 / RFU, LMF1 / Fold change vs veh, LMF1 / RFU, IPO11 / Fold change vs veh, IPO11 / RFU, DFFB / Fold change vs veh, DFFB / RFU, FOXP1 / Fold change vs veh, FOXP1 / RFU, CARD8 / Fold change vs veh, CARD8 / RFU, STRN3 / Fold change vs veh, STRN3 / RFU, ADK / Fold change vs veh, ADK / RFU, RASSF2 / Fold change vs veh, RASSF2 / RFU, WIPF1 / Fold change vs veh, WIPF1 / RFU, LARP1B / Fold change vs veh, LARP1B / RFU, RASA1 / Fold change vs veh, RASA1 / RFU, RB1 / Fold change vs veh, RB1 / RFU, PPFIA1 / Fold change vs veh, PPFIA1 / RFU, MAT2A / Fold change vs veh, MAT2A / RFU, CCT5 / Fold change vs veh, CCT5 / RFU, WDR92 / Fold change vs veh, WDR92 / RFU, CUX1 / Fold change vs veh, CUX1 / RFU, TTC7A / Fold change vs veh, TTC7A / RFU, TMEM135 / Fold change vs veh, TMEM135 / RFU, DEPTOR / Fold change vs veh, DEPTOR / RFU, CPM / Fold change vs veh, CPM / RFU, DNAJB6 / Fold change vs veh, DNAJB6 / RFU, CACNA2D3 / Fold change vs veh, CACNA2D3 / RFU, DTX4 / Fold change vs veh, DTX4 / RFU, TFCP2 / Fold change vs veh, TFCP2 / RFU, GMCL1 /// GMCL1P1 / Fold change vs veh, GMCL1 /// GMCL1P1 / RFU, AEBP2 / Fold change vs veh, AEBP2 / RFU, SNHG1 /// SNORD22 /// SNORD25 /// SNORD26 /// SNORD27 /// SNORD28 /// SNORD29 /// SNORD31 / Fold change vs veh, SNHG1 /// SNORD22 /// SNORD25 /// SNORD26 /// SNORD27 /// SNORD28 /// SNORD29 /// SNORD31 / Fold change (Aza/veh), C12orf56 (ProbeSet 11735607_a_at) / Fold change (ACY-1035/veh), C12orf56 (ProbeSet 11735607_a_at) / Fold change (Aza/veh), FGFR1OP (ProbeSet 11751329_s_at) / Fold change (ACY-1035/veh), FGFR1OP (ProbeSet 11751329_s_at) / Fold change (Aza/veh), VPS36 (ProbeSet 11739960_a_at) / Fold change (ACY-1035/veh), VPS36 (ProbeSet 11739960_a_at) / RFU SYPL1 (11715823_x_at) / Fold change /veh SYPL1 (11715823_x_at) / RFU IGFBP7 (11715501_s_at) / Fold change /veh IGFBP7 (11715501_s_at) / RFU REEP3 (11722064_at) / Fold change /veh REEP3 (11722064_at) / RFU IGLL1 (11728026_x_at) / Fold change /veh IGLL1 (11728026_x_at): dose or concentration left out as unconfirmed
Details: MV-4-11 cells, 48 hours

## Nc1ncn([C@@H]2O[C@H](CO)[C@@H](O)[C@H]2O)c(=O)n1 [azacitidine]
  RFU DDX43 (11728927_at): 12.02 RFU
